Measurements: ChEMBL document CHEMBL1201862, “PubChem BioAssay data set” (2004)
Calls of active or inactive are those of the source.

Tests used:
[1] = HepG2 cell cytotoxicity, dose response, cytotoxicity control, ATP luminescence, cherry-pick, activator set 2 (AID 1053143); type: functional, cell-based
[2] = biological target: Nuclear receptor subfamily 5 group A member 2 (Homo sapiens, UniProt O00482); type: functional, cell-based;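 also: HEK293T cells transfected with LRH-1 and a StAR promoter luciferase reporter; potency for inhibitors that lower LRH-1 driven reporter light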
Nuclear receptor subfamily 5 group A member 2, sequence (O00482 whole entry): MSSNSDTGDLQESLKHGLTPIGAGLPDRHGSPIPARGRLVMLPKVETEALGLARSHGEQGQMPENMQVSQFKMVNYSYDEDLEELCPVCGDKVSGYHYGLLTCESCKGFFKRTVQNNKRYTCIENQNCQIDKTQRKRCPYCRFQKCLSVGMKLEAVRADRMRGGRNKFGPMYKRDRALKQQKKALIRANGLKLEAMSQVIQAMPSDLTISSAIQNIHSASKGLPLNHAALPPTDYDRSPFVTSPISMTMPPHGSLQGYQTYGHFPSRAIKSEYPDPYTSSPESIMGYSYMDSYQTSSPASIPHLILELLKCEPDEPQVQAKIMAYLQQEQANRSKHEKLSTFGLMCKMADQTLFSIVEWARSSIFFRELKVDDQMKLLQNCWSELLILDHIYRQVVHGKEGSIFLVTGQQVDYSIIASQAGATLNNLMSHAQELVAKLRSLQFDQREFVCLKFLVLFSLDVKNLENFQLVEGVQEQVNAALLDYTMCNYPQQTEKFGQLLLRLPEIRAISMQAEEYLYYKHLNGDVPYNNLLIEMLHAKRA

Steroidogenic factor 1 = Steroidogenic factor 1 (Homo sapiens, UniProt Q13285); test: Counterscreen for inverse agonists of the liver receptor homolog-1 (LRH-1; NR5A2): Luminescence-based cell-based high throughput dose response assay to identify inverse agonists of the Steroidogenic Factor 1 Nuclear Receptor (SF1; NR5A1).; type: functional
Steroidogenic factor 1, sequence (Q13285 whole entry): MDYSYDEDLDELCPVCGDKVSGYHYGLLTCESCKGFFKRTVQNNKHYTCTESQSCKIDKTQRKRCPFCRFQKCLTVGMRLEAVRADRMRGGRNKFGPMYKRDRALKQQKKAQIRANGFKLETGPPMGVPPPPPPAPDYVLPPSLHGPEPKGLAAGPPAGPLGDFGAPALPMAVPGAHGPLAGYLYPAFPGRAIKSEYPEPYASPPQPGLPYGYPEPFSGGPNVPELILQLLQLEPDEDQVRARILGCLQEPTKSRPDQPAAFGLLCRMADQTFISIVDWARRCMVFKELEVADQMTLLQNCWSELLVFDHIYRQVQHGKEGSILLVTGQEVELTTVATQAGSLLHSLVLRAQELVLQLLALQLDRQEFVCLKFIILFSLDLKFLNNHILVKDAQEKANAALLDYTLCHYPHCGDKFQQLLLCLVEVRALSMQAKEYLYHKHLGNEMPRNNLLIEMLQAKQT

[3] = StAR promoter reporter inhibition counter-screen, dose response, counter-screen for LRH-1 inverse agonist project, cell-based, luminescence, luciferase reporter (AID 651969); type: functional
[4] = Luminescence Cell-Based Dose Response HTS to Identify Activators of Luciferase Translation or Activity in H4 […] Cells. [Related pubchem assays: 1829 (Project Summary), 1814 (Primary HTS)]; type: functional
[5] = HeLa cell cytotoxicity, dose response, cytotoxicity control for MgcRacGAP inhibitor project (AID 624300); type: functional
H4 = test: Luminescence Cell-Based Dose Response HTS to Identify Activators of 5'UTR Stem-Loop Driven Prion Protein mRNA Translation in H4 Neuroglioblastoma Cells. [Related pubchem assays: 1829 (Project Summary), 1814 (Primary HTS)]; type: functional; conditions: Homo sapiens
[6] = Luminescence Cell-Based Dose Confirmation HTS to Identify Activators of 5'UTR Stem-Loop Driven Alpha-Synuclein mRNA Translation in H4 Neuroglioblastoma Cells. [Related pubchem assays: 1829 (Project Summary), 1814 (Primary HTS)]; type: functional
[7] = biological target: T1, Rac GTPase-activating protein 1 (Homo sapiens, UniProt Q9H0H5); test: MgcRacGAP GTPase-activating activity inhibitors, confirmation, biochemical, ADP Hunter fluorescence, primary and confirmatory (AID 624330); type: functional
T1 sequence (Q9H0H5 whole entry): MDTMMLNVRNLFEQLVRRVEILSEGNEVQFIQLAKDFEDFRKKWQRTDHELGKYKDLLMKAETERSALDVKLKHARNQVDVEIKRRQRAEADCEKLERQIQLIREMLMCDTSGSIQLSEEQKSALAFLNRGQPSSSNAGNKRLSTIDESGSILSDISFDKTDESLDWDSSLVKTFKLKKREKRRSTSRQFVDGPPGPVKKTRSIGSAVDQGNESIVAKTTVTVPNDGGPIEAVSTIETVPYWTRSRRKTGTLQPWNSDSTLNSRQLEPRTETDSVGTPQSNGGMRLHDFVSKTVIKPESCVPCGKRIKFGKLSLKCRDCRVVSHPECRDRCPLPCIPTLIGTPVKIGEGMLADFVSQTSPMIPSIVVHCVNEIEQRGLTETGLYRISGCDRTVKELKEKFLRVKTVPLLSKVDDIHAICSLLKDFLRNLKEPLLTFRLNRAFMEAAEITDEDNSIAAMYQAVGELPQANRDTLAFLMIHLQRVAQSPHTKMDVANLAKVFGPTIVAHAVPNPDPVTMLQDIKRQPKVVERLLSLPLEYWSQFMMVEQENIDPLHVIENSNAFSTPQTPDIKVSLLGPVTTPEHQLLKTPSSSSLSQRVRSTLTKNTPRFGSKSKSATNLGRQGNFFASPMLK

[8] = biological target: T2, Small ubiquitin-related modifier 1 (Homo sapiens, UniProt P63165); test: inhibitors of SUMO1 partner interactions, dose response, biochemical, FRET (AID 624383); type: functional; conditions: read-out: IC50_Mean
T2 sequence (P63165 whole entry): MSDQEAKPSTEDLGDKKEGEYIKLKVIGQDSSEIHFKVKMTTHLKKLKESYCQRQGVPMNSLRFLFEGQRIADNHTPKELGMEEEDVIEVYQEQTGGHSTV

[9] = biological target: T2, Small ubiquitin-related modifier 1; test: inhibitors of SUMO1 peptide binding, dose response, biochemical, fluorescence polarization, uHTS hits (AID 624382); type: functional; conditions: read-out: IC50_Mean
[10] = biological target: T3, DNA repair protein RAD52 homolog (Homo sapiens, UniProt P43351); type: functional, biochemical
T3 sequence (P43351 whole entry): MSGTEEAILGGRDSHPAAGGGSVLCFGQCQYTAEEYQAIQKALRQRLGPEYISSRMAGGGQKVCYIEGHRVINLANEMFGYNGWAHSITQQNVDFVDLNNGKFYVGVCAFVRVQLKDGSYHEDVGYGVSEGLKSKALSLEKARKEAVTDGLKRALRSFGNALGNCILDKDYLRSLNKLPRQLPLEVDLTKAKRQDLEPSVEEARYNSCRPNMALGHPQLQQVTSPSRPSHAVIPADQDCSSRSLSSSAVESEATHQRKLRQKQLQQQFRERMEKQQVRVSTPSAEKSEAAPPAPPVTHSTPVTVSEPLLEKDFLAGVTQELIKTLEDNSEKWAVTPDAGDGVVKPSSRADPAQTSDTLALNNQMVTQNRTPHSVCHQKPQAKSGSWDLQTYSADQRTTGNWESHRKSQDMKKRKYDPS

[11] = biological target: T4, DNA repair and recombination protein RAD54-like (Homo sapiens, UniProt Q92698); test: inhibitors of human RAD54 branch migration, confirmation, biochemical, fluorescence, cherry-picked samples, dose series (AID 651657); type: functional
T4 sequence (Q92698 whole entry): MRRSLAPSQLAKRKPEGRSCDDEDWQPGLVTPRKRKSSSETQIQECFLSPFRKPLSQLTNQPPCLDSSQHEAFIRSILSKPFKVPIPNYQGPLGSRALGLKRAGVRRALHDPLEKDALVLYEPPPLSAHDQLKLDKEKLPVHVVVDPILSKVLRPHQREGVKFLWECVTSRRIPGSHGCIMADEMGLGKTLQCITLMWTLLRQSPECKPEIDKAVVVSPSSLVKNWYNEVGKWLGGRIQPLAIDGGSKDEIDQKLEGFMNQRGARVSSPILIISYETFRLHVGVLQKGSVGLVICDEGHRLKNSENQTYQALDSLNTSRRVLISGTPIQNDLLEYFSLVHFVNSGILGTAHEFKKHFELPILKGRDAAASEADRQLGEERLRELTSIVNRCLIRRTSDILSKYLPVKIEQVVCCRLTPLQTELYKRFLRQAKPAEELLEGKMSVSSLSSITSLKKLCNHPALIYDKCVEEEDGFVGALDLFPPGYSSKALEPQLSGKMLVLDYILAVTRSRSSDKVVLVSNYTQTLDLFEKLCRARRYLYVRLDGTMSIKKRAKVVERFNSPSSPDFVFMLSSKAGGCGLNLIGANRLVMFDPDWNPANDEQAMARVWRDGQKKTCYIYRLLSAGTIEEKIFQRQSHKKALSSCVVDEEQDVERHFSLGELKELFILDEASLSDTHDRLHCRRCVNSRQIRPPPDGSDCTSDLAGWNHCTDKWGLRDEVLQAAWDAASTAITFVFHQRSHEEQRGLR

Fatty acid synthase [12] = biological target: T5, Fatty acid synthase (Homo sapiens, UniProt P49327); test: FAS thioesterase domain inhibitors, dose response, biochemical, endpoint fluorescence intensity, uHTS hits (AID 624327); type: functional;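 also: fluorescence from hydrolysis of an O-methyl fluorescein acyl ester substrate by the enzyme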
T5 sequence (P49327 whole entry, the tested form may be a part): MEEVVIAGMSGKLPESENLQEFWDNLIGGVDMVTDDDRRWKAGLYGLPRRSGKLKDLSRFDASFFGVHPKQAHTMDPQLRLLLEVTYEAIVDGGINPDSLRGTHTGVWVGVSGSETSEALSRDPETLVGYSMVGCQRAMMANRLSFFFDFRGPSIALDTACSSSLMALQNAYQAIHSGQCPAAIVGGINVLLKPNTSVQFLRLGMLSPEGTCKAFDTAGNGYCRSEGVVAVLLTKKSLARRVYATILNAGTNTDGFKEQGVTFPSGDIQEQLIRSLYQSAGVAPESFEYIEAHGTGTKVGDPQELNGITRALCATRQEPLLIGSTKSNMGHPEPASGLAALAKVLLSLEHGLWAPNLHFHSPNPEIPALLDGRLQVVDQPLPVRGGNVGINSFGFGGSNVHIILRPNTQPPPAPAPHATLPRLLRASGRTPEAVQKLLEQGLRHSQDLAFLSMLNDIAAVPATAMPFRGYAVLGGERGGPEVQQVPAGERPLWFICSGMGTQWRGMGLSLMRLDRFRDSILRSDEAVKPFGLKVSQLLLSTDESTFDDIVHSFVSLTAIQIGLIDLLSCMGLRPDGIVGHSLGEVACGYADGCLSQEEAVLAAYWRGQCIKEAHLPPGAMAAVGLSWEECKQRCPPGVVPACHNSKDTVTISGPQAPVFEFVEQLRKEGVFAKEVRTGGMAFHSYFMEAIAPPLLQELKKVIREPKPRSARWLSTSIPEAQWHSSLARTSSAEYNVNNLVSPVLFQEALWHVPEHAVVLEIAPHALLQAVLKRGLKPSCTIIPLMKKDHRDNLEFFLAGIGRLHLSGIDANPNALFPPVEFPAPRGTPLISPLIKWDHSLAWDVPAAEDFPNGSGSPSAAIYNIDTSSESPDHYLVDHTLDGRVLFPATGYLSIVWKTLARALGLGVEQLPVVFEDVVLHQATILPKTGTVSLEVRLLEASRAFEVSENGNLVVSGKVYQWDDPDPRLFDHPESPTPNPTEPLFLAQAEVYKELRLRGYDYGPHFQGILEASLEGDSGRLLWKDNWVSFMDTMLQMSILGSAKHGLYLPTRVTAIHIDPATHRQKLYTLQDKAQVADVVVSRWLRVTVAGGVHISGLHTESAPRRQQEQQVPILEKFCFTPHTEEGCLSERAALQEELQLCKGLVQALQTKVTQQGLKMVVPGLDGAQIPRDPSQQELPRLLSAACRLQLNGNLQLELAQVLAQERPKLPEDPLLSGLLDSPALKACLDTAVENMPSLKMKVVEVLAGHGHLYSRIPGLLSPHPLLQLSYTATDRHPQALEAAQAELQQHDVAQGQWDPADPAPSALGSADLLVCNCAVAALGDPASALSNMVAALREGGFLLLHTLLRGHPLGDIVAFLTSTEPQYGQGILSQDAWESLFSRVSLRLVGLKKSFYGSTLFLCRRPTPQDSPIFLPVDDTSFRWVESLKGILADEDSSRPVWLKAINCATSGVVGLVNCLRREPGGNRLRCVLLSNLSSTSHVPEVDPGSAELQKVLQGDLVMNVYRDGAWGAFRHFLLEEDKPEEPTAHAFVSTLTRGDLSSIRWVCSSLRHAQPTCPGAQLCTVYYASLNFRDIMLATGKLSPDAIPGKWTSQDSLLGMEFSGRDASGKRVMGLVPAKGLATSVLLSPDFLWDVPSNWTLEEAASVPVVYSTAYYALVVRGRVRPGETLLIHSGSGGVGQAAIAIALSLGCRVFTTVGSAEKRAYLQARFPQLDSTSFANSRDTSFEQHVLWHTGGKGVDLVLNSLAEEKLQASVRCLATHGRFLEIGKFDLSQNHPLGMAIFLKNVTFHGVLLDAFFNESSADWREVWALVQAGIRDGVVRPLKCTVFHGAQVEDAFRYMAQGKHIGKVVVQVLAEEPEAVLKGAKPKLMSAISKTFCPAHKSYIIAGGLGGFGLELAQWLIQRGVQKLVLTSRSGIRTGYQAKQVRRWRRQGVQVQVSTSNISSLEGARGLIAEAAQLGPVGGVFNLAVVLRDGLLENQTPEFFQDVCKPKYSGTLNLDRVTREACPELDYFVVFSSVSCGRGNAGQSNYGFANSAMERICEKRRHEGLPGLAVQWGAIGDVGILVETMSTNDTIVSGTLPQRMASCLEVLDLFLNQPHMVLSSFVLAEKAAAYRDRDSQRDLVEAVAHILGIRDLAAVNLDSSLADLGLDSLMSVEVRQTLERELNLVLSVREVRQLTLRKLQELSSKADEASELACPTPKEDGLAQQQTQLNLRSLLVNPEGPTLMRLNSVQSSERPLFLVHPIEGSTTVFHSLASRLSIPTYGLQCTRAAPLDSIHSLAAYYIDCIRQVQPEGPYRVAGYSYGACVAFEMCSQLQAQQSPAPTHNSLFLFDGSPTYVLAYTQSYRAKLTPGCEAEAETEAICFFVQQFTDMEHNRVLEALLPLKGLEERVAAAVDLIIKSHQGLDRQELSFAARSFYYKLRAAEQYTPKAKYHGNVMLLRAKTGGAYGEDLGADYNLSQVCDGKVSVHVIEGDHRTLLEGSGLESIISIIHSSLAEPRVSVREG

Fatty acid synthase [13] = biological target: T5, Fatty acid synthase; test: FAS thioesterase domain inhibitors, dose response, biochemical, kinetic fluorescence intensity (AID 624326); type: functional;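 also: rate of fluorescence rise from hydrolysis of a fluorogenic O-methyl fluorescein ester substrate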
Cytochrome P450 3A4 = Cytochrome P450 3A4 (Homo sapiens, UniProt P08684);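 also: CYP3A4 tested as one member of a cytochrome P450 panel screen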
Cytochrome P450 3A4, sequence (P08684 whole entry): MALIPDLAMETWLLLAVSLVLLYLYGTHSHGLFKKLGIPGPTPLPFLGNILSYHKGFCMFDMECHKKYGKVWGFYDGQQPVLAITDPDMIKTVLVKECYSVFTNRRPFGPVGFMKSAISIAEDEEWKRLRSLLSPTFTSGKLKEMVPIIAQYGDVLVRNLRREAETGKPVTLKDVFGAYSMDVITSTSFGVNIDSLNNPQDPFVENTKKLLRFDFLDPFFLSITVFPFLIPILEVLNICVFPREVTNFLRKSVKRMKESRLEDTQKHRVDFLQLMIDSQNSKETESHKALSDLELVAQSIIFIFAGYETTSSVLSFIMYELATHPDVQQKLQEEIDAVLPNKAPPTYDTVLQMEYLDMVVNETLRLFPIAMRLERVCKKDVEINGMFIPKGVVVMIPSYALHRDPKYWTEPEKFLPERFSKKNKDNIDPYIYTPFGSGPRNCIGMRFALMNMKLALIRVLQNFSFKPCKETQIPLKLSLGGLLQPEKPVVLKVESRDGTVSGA

[14] = T. cruzi growth inhibition in host cells, dose response, cell-based, plate reader, dry powder, set 2 (AID 652275); type: functional
[15] = biological target: Disintegrin and metalloproteinase domain-containing protein 17 (Homo sapiens, UniProt P78536); test: exosite inhibitors of ADAM17, dose response, biochemical (AID 743260)
Disintegrin and metalloproteinase domain-containing protein 17, sequence (P78536 whole entry, the tested form may be a part): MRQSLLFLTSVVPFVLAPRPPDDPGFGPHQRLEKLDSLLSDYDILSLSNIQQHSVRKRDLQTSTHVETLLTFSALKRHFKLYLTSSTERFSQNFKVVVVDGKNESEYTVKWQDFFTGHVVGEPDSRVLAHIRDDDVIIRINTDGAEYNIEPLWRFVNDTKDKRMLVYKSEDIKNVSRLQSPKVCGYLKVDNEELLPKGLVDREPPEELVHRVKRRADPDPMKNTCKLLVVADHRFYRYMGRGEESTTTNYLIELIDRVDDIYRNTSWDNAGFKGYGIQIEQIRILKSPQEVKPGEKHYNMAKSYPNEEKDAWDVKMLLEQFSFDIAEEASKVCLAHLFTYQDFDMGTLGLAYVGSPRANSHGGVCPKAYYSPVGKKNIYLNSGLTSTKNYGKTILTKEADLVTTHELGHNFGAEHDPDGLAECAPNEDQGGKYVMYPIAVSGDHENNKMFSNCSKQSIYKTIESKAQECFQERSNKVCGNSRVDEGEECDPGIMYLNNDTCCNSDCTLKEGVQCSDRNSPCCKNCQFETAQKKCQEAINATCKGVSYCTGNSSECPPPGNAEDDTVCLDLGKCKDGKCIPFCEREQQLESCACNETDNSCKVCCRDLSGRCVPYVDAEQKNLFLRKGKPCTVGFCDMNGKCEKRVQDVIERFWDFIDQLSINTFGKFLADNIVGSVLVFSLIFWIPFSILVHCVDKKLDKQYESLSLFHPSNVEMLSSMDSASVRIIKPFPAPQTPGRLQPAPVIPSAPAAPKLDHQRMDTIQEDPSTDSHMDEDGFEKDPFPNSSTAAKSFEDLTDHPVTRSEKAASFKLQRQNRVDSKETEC

[16] = ADAM10 protease inhibitors, dose response, selectivity assay for ADAM17 exosite inhibitor project, biochemical, FRET peptide substrate, recombinant human ADAM10 (AID 743259);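 also: ADAM10 enzyme cleaving a FRET peptide substrate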
[17] = biological target: T6, Histone-lysine N-methyltransferase NSD2 (Homo sapiens, UniProt O96028); type: biochemical
T6 sequence (O96028 whole entry): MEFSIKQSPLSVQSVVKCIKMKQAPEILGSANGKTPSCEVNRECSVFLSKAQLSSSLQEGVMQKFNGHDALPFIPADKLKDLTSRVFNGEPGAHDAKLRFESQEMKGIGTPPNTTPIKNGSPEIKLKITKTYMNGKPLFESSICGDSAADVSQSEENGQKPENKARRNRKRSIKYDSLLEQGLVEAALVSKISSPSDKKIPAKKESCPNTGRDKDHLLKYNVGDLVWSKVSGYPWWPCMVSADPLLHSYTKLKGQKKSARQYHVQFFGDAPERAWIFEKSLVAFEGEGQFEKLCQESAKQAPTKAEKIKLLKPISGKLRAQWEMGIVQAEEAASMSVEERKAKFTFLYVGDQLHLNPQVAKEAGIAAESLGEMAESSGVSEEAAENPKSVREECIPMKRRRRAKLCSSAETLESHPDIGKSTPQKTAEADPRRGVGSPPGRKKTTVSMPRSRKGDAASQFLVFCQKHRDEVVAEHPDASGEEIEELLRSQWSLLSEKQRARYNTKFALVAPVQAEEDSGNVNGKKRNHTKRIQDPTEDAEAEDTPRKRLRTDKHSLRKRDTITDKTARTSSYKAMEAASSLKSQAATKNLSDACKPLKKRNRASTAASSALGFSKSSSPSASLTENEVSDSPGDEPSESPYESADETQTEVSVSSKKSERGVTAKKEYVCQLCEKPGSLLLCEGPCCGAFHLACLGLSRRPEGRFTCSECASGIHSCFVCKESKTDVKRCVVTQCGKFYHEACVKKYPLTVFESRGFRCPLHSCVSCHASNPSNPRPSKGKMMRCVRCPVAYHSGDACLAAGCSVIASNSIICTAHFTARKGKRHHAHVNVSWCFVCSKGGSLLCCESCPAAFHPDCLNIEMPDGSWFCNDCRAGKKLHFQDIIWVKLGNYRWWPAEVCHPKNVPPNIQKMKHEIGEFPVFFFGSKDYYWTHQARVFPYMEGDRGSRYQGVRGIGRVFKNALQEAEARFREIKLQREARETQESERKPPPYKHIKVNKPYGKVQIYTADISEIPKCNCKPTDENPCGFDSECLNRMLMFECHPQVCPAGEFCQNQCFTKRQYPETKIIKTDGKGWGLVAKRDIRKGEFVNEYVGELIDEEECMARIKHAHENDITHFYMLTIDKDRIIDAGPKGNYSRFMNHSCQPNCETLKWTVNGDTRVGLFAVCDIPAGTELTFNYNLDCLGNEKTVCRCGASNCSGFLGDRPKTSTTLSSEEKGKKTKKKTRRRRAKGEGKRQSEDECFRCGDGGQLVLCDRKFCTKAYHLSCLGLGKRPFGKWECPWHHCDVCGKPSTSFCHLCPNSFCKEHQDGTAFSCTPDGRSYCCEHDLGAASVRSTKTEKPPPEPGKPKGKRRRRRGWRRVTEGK

[18] = Luminescence Cell-Based Dose Retest to Confirm Inhibitors of Cancer Stem Cells. [Related pubchem assays (depositor defined):AID2717, AID2721]; type: functional; conditions: Homo sapiens

CN(C)c1ccc(C=Cc2ccnc3ccccc23)cc1N
AC50 [1]: 26 µM (active)

Cc1ccn2c(=O)nc(SCC(=O)Nc3ccc4c(c3)OCCO4)nc2c1
IC50 [2]: 35.9 µM (inactive) | IC50 (Steroidogenic factor 1): 3.98 µM (active) | IC50 [3]: 35.9 µM (inactive)

CCn1c(SC(C)C)nnc1-c1cc(-c2ccccc2)sc1N
EC50 [4]: > 120 µM (not active) | CC50 [5]: 100 µM (active) | EC50 (H4): > 120 µM (not active) | EC50 [6]: > 120 µM (not active) | IC50 [7]: 31.1 µM (active)

CN(C)CCNC(=O)c1cccc(-c2cnc3c(NC=O)cc(-c4cccs4)cn23)c1
IC50 [8]: 1.82 µM (active) | IC50 [9]: > 66.6 µM (inactive) | AC50 [10]: 8.36 µM (active) | AC50 [11]: 15.6 µM (active)

COc1cccc(-c2cnc3c(NC=O)cc(-c4ccc(S(C)(=O)=O)cc4)cn23)c1
IC50 (Fatty acid synthase [12]): 11.2 µM (active) | IC50 (Fatty acid synthase [13]): 9.95 µM (active)

Cc1cc(Br)ccc1NC(=O)CSc1nnc(CN2CCOCC2)n1C
IC50 [2]: 40.2 µM (inactive) | IC50 (Steroidogenic factor 1): 24.7 µM (inactive) | IC50 [3]: 35.9 µM (inactive)

COCCCNC(=O)C[C@H]1C[C@H](C(=O)N2CCOCC2)[C@@]2(CCC3CCCC3)c3[nH]c4cc(-c5ccco5)ccc4c3CCN2C1=O
IC50 (Fatty acid synthase [12]): 6.51 µM (active) | IC50 (Fatty acid synthase [13]): 9.08 µM (active)

Cc1sc(NC(=O)C(C)C)c(C(=O)Nc2ccccc2)c1C
AC50 (Cytochrome P450 3A4): inconclusive | IC50 [2]: 11.6 µM (inactive) | IC50 (Steroidogenic factor 1): 3.85 µM (active) | IC50 [3]: 35.9 µM (inactive)

CN(Cc1ccccc1)C(=O)COC(=O)c1cc([N+](=O)[O-])ccc1N1CCOCC1
IC50 (Fatty acid synthase [12]): 0.539 µM (active) | IC50 (Fatty acid synthase [13]): 0.617 µM (active)

O=C(C1CCC1)N1CCCCN2[C@@H](CO)[C@H](c3ccc(-c4cccc(F)c4)cc3)[C@@H]2C1
AC50 [14]: 0.227 µM (active)

O=C(CSc1nc2ccccc2o1)NN=C/C=C/c1ccccc1
IC50 [15]: > 69.5 µM (inactive) | IC50 [16]: > 69.5 µM (inactive)

Cc1cc(N2CCN(C)CC2)nc2ccc(NC(=S)NCCCN3CCc4ccccc4C3)cc12
AC50 [10]: 3.85 µM (active) | AC50 [11]: 28.1 µM (active)

Cc1cc(/C=C2\C(=O)NC(=O)N(Cc3ccccc3Cl)C2=O)c(C)n1-c1ccc(C(=O)O)cc1
AC50 [17]: > 20 µM (inactive)

Cc1ccccc1-n1c(SCC(=O)N/N=C/C=C/c2ccccc2[N+](=O)[O-])nc2ccccc2c1=O
IC50 [15]: > 69.5 µM (inactive) | IC50 [16]: 4.51 µM (active) | AC50 [18]: > 195 µM (inactive)

COc1cc(C(c2c(C)n[nH]c2O)c2c(C)n[nH]c2O)ccc1OCc1ccc([N+](=O)[O-])cc1
IC50 [16]: > 23.2 µM (inactive)

COc1ccc(N2CCN(CC(O)COC(c3ccc(F)cc3)c3ccc(F)cc3)CC2)cc1 (stereo not drawn)
CC50 [5]: 100 µM (active) | IC50 [7]: 92.8 µM (active)
